Laboratory results: patent US11129840B2, “Methods for identifying novel dosing regimens” (Zavante Therapeutics, Inc., priority 2017, dated 2021)
Values after ≈ are worked out from the molar mass of the structure shown. Read-outs that look alike come from different tables or passages of the source.

Legend:
EC that were CR = assay: Reference agar dilution MIC, resistant SENTRY isolates; assay type: cell-based, Escherichia coli
Experimental: Utilizing existing interpretative criteria for the marketed oral agent (dosed at 3 g) for analysis purposes, FOS susceptibility (S) was determined for recent resistant GN and GP clinical isolates including vancomycin-resistant Enterococcus faecium (VREM) and E. faecalis (VREF); methicillin-resistant Staphylococcus aureus (MRSA) and MR coagulase negative staphylococci (MR-CoNS), Escherichia coli (EC) and Klebsiella pneumoniae (KPN) containing extended spectrum beta-lactamases (ESBL) or were carbapenem resistant (CR); and), Pseudomonas aeruginosa (PSA) non-susceptible to ceftazidime (CAZ-NS) or to meropenem (MER-NS). […] Isolates were collected from hospitalized patients in the US as a part of the SENTRY surveillance program, 2013-2015.

Enterobacteriaceae [1] = assay: Neutropenic murine-thigh infection model, AUC:MIC ratio targets; assay type: in vivo
KPN with ESBL phenotype = assay: Reference agar dilution MIC, resistant SENTRY isolates; assay type: cell-based, Klebsiella pneumoniae
Experimental: (§1) Utilizing existing interpretative criteria for the marketed oral agent (dosed at 3 g) for analysis purposes, FOS susceptibility (S) was determined for recent resistant GN and GP clinical isolates including vancomycin-resistant Enterococcus faecium (VREM) and E. faecalis (VREF); methicillin-resistant Staphylococcus aureus (MRSA) and MR coagulase negative staphylococci (MR-CoNS), Escherichia coli (EC) and Klebsiella pneumoniae (KPN) containing extended spectrum beta-lactamases (ESBL) or were carbapenem resistant (CR); and), Pseudomonas aeruginosa (PSA) non-susceptible to ceftazidime (CAZ-NS) or to meropenem (MER-NS).

CR-KPN = assay: as above; assay type: cell-based, Klebsiella pneumoniae
Experimental: as §1

[2] = test system: Carbapenem-resistant Enterobacteriaceae (CRE) clinical isolates; assay: Agar dilution susceptibility, CRE clinical isolates; assay type: cell-based
[3] = Phase I single dose pharmacokinetics in healthy adult subjects; assay type: in vivo, human; conditions: for half-life / CL renal / Vd / AUC(0-inf) / Cmax / Tmax: plasma
Experimental: Materials/methods: Phase I, open-label study evaluating IV (ZTI-01) and PO (Monurol®) FOS in healthy adult subjects. […] Blood and urine samples were collected serially before and through 48 hours post-dose and analyzed via LC/MS-MS. Noncompartmental analyses were performed via WinNonlin. Safety was monitored throughout the course of the study.

[4] = test system: Meropenem-NS PSA (MDR PSA isolates); assay: FOF MIC by ETEST; assay type: cell-based; conditions: Pseudomonas aeruginosa
Experimental: Meropenem-NS PSA obtained from US hospitals were studied. MICs of all antibiotics except FOF were previously determined by broth microdilution; FOF MIC was determined by ETEST® antibiotic gradient diffusion strip prior to conducting synergy assessments between FOF and aztreonam (ATM), cefepime (FEP), ceftazidime (CAZ), meropenem (MEM), piperacillin/tazobactam (TZP), and tobramycin (TOB). […] Of note, Liofilchem® MIC Test Strip was used for TZP due to commercial availability. Only organisms that were NS to the 2nd drug were assessed for synergy.

[5] = test system: ESBL-containing P. mirabilis; assay: Reference agar dilution MIC, ZEUS baseline isolates; assay type: cell-based; conditions: Proteus mirabilis; 3 isolates
Experimental: (§2) FOS was tested against 465 GN baseline clinical isolates collected in the cUTI clinical trial. Isolates were susceptibility (S) tested against comparator agents by reference broth microdilution and FOS by reference agar dilution (25 μg/mL glucose-6-phosphate supplementation). Existing FDA FOS breakpoints of ≤64 mg/L for the oral formulation were used for comparative assessments. Screen-positive ESBL Enterobacteriaceae isolates were characterized by whole genome sequencing and analysis for the presence of known β-lactamase genes.

ESBL-containing E. coli = assay: as above; assay type: cell-based; conditions: Escherichia coli; 49 isolates
Experimental: as §2

E. coli = assay: as above; assay type: cell-based; conditions: 329 E. coli
Experimental: as §2

Enterobacteriaceae [6] = assay: as above; assay type: cell-based
Experimental: as §2

[7] = test system: K. pneumoniae isolates with carbapenemase genes NDM-1 and OXA-48; assay: as above; assay type: cell-based; conditions: Klebsiella pneumoniae
Experimental: as §2

Pseudomonas aeruginosa = assay: as above; assay type: cell-based
Experimental: as §2

[8] = test system: Enterobacter cloacae complex; assay: as above; assay type: cell-based
Experimental: as §2

[9] = test system: ESBL-containing K. pneumoniae; assay: as above; assay type: cell-based; conditions: Klebsiella pneumoniae
Experimental: as §2

Klebsiella pneumoniae = assay: as above; assay type: cell-based
Experimental: as §2

Proteus mirabilis = assay: as above; assay type: cell-based; conditions: 20 isolates
Experimental: as §2

Enterobacteriaceae [10] = assay: MIC distribution for 1,091 Enterobacteriaceae isolates from USA; assay type: cell-based
[11] = Klebsiella pneumoniae, 17 CR-KPN
[12] = human, in vivo, 3 g PO (Monurol), mean ± SD
[13] = human, 1 g IV (ZTI-01), mean ± SD
[14] = human, 3 g PO (Monurol), mean ± SD
[15] = human, 8 g IV (ZTI-01), mean ± SD

## C[C@@H]1O[C@@H]1P(=O)(O)O [FOS, fosfomycin]
EC that were CR; 9 of 11 isolates
  MIC range: 0.5 to 32 µg/mL
EC that were CR; Escherichia coli
  MIC: > 256 µg/mL
Enterobacteriaceae [1]; 1-log10 CFU reduction from baseline at 24 h
  median total-drug plasma AUC:MIC ratio target: 41.6
Enterobacteriaceae [1]; net bacterial stasis at 24 h
  median total-drug plasma AUC:MIC ratio target: 19.1
KPN with ESBL phenotype; Klebsiella pneumoniae
  MIC: > 256 µg/mL
KPN with ESBL phenotype; Klebsiella pneumoniae, 50 KPN
  MIC50: 4 µg/mL (≈ 29 µM)
  MIC90: 16 µg/mL (≈ 116 µM)
KPN with ESBL phenotype; of 50 KPN
  No. of isolates with FOS MIC≤64 μg/mL: 49
CR-KPN; [11]
  MIC50: 8 µg/mL (≈ 57.9 µM)
  MIC90: 64 µg/mL (≈ 464 µM)
CR-KPN; of 17 CR-KPN
  No. of isolates with FOS MIC≤64 μg/mL: 16
CR-KPN; one isolate
  MIC: > 256 µg/mL
[2]
  % of isolates susceptible to FOS: 94%
  MIC90: 512 µg/mL (≈ 3710 µM)
[2]; 50 isolates
  MIC50: 2 µg/mL (≈ 14.5 µM)
[2]; C-A R isolates
  MIC range: 1 to 64 µg/mL
[2]; C-A R isolates, read-out: Median MIC
  MIC: 8 µg/mL (≈ 57.9 µM)
[2]; FOS R isolate with fosA2 and SNP in glpT, read-out: MIC
  MIC: 256 µg/mL (≈ 1850 µM)
[2]; FOS-R isolate harboring fosA3, read-out: MIC
  MIC: > 1020 µg/mL
[2]; third FOS-R isolate (OXA-181+, CTXM-15+Kp), read-out: MIC
  MIC: 128 µg/mL (≈ 927 µM)
[3]; 1 g IV
  fraction of the dose excreted in urine after 48 hours: 74%
[3]; 1 g IV (ZTI-01), mean ± SD
  CLT: 8.7 ± 1.7 L/h
[3]; 3 g PO
  fraction of the dose excreted in urine after 48 hours: 37%
[3]; 3 g PO (Monurol), mean ± SD
  CLT/F: 17.0 ± 4.7 L/h
[3]; 8 g IV
  fraction of the dose excreted in urine after 48 hours: 80%
[3]; 8 g IV (ZTI-01), mean ± SD
  CLT: 7.8 ± 1.4 L/h
[3]; between the 1 g and 8 g IV doses
  dose dependence of plasma PK: approximately linear and proportional
[3]; human, in vivo, 1 g IV (ZTI-01), mean ± SD
  half-life: 144 ± 24 min
[3]; [12]
  Vd/F: 204 ± 70.7 L
  half-life: 542 ± 270 min
[3]; human, in vivo, 8 g IV (ZTI-01), mean ± SD
  half-life: 168 ± 36 min
[3]; [13]
  CL renal: 110 mL/min
  Vd: 29.7 ± 5.7 L
  AUC(0-inf): 120 ± 28.5 µg·h/mL
  Cmax: 44300 ± 7600 ng/mL
  Tmax: 1.1 ± 0.05 h
[3]; [14]
  CL renal: 108 mL/min
  AUC(0-inf): 191 ± 57.6 µg·h/mL
  Cmax: 26800 ± 6400 ng/mL
  Tmax: 2.25 ± 0.4 h
[3]; [15]
  CL renal: 105 mL/min
  Vd: 31.5 ± 10.4 L
  AUC(0-inf): 1060 ± 192 µg·h/mL
  Cmax: 370000 ± 61900 ng/mL
  Tmax: 1.08 ± 0.01 h
[4]
  MIC90: > 1020 µg/mL
[4]; 87 isolates, ETEST
  MIC50: 64 µg/mL
[5]
  MIC50: 2 µg/mL (≈ 14.5 µM)
ESBL-containing E. coli
  MIC50: 1 µg/mL (≈ 7.24 µM)
  MIC90: 2 µg/mL (≈ 14.5 µM)
E. coli
  % S to FOS: 100.0%
Enterobacteriaceae [6]
  % of isolates ≤64 mg/L: 96.4%
  MIC50: 1 µg/mL (≈ 7.24 µM)
  MIC90: 16 µg/mL (≈ 116 µM)
[7]; NDM-1 isolate
  MIC: 8 µg/mL (≈ 57.9 µM)
[7]; OXA-48 isolate
  MIC: 64 µg/mL (≈ 464 µM)
Pseudomonas aeruginosa
  MIC90: 256 µg/mL (≈ 1850 µM)
Pseudomonas aeruginosa; 21 isolates
  MIC50: 64 µg/mL (≈ 464 µM)
[8]
  MIC90: 128 µg/mL (≈ 927 µM)
[8]; 14 isolates
  MIC50: 16 µg/mL (≈ 116 µM)
[9]
  MIC90: 128 µg/mL (≈ 927 µM)
[9]; 28 isolates
  MIC50: 16 µg/mL (≈ 116 µM)
Klebsiella pneumoniae; 62 isolates
  % of isolates <64 mg/L: 87.1%
Klebsiella pneumoniae; Klebsiella pneumoniae
  MIC90: 128 µg/mL (≈ 927 µM)
Klebsiella pneumoniae; Klebsiella pneumoniae, 62 isolates
  MIC50: 16 µg/mL (≈ 116 µM)
Proteus mirabilis
  MIC50: 2 µg/mL (≈ 14.5 µM)
  MIC90: 32 µg/mL (≈ 232 µM)
Enterobacteriaceae [10]
  MIC90: 16 mgL
